# Laboratory results published in US9446039B2, “Aminoheteroaryl compounds as MTH1 inhibitors” (CEMM—FORSCHUNGSZENTRUM FÜR MOLEKULARE MEDIZIN GMBH, priority 2012, dated 2016).
# Key:
# Assay type in all cases: binding
# [1] = target: T1, SW480 colon carcinoma cells lysate proteins (Homo sapiens, UniProt P30043); details: PreyGene BLVRB
# T1 sequence (P30043 1-206): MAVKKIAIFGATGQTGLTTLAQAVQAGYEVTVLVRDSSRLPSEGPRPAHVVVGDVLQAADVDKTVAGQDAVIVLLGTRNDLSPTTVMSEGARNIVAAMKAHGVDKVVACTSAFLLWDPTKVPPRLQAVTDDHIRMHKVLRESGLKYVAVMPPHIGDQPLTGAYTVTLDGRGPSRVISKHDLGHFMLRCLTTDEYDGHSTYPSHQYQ
# [2] = target: T2, SW480 colon carcinoma cells lysate proteins (Homo sapiens, UniProt P30101); details: PreyGene PDIA3
# T2 sequence (P30101 25-505): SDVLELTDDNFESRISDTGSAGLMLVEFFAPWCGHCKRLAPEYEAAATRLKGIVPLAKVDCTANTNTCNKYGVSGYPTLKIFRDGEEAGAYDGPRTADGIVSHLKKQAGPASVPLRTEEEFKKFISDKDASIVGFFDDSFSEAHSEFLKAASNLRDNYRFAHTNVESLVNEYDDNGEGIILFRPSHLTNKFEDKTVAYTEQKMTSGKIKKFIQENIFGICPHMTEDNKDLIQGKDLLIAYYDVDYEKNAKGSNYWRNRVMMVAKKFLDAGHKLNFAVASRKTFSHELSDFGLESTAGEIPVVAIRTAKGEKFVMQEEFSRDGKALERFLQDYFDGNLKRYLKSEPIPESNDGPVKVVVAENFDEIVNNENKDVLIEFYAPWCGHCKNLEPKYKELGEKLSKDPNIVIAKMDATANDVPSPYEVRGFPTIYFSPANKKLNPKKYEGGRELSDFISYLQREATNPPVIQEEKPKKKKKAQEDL
# [3] = target: SW480 colon carcinoma cells lysate proteins (Homo sapiens, UniProt P49327); details: PreyGene FASN
# Chain of SW480 colon carcinoma cells lysate proteins (Homo sapiens, UniProt P49327) (P49327 whole entry): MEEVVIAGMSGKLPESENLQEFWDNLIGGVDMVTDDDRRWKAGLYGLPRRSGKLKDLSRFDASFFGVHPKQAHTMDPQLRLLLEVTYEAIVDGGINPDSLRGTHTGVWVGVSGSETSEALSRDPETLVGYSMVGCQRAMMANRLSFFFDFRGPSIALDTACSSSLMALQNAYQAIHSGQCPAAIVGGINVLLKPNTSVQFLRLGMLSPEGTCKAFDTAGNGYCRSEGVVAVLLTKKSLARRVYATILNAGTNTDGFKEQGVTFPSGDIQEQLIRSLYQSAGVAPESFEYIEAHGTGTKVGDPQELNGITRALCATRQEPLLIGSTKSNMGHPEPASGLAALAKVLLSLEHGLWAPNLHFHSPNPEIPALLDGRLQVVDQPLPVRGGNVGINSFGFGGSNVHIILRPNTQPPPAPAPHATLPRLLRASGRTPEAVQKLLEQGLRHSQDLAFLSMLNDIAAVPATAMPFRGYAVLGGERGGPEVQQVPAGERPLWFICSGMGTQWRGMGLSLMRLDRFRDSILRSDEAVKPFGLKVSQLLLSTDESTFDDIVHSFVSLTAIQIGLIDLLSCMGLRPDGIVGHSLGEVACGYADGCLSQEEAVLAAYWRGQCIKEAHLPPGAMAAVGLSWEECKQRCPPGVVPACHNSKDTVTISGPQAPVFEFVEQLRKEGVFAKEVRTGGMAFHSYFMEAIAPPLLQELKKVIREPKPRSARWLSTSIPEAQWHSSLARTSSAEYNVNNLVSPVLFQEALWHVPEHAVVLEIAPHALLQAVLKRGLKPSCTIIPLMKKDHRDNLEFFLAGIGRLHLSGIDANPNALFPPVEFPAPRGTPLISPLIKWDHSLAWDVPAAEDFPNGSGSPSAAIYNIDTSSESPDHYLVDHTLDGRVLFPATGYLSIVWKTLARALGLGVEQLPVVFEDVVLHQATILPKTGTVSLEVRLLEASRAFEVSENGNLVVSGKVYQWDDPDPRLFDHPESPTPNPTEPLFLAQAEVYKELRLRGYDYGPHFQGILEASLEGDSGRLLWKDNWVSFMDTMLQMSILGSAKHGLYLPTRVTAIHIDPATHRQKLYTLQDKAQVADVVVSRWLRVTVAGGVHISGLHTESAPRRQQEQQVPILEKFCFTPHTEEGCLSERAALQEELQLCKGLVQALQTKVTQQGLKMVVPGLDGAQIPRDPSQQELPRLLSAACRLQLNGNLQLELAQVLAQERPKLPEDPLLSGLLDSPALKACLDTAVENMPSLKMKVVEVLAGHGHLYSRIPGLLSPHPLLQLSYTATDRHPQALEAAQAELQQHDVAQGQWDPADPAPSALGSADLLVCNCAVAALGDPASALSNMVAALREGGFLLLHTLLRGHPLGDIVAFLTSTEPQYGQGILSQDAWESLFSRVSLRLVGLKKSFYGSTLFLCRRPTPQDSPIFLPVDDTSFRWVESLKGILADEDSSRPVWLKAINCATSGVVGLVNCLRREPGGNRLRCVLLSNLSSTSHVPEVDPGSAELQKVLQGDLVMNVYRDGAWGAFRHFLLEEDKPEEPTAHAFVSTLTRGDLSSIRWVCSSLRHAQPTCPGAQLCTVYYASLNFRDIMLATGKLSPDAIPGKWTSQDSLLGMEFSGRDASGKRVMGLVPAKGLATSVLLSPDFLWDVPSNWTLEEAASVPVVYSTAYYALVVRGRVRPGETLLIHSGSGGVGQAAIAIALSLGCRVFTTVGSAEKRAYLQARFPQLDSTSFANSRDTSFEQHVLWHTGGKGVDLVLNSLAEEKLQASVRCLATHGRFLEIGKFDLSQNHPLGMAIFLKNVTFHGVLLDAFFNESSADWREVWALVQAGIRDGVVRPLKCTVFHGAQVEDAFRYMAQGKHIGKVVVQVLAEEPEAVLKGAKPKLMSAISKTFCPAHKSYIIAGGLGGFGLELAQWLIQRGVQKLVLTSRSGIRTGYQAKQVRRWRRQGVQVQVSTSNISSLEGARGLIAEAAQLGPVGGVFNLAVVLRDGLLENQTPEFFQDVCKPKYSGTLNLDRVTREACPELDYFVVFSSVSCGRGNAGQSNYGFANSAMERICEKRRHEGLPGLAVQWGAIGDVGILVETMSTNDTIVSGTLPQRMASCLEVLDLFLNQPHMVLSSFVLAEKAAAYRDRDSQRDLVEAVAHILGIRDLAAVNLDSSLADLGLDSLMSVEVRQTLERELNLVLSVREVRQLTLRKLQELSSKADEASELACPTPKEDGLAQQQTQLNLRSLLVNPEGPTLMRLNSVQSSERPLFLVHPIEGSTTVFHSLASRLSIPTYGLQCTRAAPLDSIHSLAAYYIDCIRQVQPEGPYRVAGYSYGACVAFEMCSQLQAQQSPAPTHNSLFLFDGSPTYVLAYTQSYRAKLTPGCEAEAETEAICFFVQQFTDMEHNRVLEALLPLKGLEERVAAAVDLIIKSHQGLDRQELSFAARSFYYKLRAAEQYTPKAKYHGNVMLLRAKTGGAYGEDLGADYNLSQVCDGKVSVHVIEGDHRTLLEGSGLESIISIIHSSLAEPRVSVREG
# [4] = target: T3, SW480 colon carcinoma cells lysate proteins (Homo sapiens, UniProt Q92973); details: PreyGene TNPO1; SW480 cells
# T3 sequence (Q92973 1-898): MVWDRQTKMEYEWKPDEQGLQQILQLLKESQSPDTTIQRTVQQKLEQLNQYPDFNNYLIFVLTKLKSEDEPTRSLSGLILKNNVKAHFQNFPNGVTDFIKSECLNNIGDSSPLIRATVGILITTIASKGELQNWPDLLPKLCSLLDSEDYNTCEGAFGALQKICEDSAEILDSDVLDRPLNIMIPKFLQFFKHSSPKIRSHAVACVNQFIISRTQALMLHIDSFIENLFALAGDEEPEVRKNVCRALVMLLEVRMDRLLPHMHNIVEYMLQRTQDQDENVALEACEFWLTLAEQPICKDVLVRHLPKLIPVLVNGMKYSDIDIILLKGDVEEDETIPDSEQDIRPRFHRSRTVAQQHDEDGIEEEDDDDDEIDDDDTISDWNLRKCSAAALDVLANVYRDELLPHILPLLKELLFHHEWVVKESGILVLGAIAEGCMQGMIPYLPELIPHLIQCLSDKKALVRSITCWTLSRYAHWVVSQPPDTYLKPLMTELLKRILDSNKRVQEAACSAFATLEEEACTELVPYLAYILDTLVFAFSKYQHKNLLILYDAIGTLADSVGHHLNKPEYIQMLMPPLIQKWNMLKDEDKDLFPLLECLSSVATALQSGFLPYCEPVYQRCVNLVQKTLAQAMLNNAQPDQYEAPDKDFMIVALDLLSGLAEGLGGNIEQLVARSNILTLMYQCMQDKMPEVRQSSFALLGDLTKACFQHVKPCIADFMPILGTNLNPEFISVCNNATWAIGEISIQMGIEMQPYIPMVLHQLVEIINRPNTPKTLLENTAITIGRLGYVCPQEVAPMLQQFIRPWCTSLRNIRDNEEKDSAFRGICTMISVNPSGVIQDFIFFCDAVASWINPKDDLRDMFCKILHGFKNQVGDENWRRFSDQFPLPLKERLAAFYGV
# [5] = target: SW480 colon carcinoma cells lysate proteins (Homo sapiens, UniProt Q9BVA1); details: PreyGene TUBB2B; SW480 cells
# Chain of SW480 colon carcinoma cells lysate proteins (Homo sapiens, UniProt Q9BVA1) (Q9BVA1 whole entry): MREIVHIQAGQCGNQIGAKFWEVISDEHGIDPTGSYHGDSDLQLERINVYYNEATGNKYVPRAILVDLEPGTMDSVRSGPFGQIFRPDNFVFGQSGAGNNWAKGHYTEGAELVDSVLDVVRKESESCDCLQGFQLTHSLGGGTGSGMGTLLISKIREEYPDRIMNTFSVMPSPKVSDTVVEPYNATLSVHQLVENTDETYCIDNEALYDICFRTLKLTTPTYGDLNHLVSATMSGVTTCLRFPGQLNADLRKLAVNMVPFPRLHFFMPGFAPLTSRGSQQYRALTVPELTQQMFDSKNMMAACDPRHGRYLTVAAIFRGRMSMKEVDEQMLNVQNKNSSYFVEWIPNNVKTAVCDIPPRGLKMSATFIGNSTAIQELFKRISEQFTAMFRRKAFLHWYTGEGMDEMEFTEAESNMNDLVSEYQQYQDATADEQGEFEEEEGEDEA
# [6] = target: T4, SW480 colon carcinoma cells lysate proteins (Homo sapiens, UniProt Q9BVC6); details: PreyGene TMEM109; SW480 cells
# T4 sequence (Q9BVC6 34-243): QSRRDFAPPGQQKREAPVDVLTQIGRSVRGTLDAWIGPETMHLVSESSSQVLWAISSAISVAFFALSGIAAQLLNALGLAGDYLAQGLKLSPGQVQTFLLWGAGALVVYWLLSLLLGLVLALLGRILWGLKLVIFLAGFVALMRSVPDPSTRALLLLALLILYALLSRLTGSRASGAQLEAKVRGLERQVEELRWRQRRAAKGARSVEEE
structure (smiles),measurement,setting,value
C[C@H](Oc1cc(-c2cnn(C3CCNCC3)c2)cnc1N)c1c(Cl)ccc(F)c1Cl [(5)-crizotinib],AvgP,[1],0.1915
same,SC.Exp. 1-1,[1],0
same,SC.Exp. 1-2,[1],2
same,SC.Exp. 2-1,[1],0
same,SC.Exp. 2-2,[1],0
same,Sum (SC.Exp.),[1],2
same,AvgP,[2],0.4952
same,SC.Exp. 1-1,[2],8
same,SC.Exp. 1-2,[2],7
same,SC.Exp. 2-1,[2],0
same,SC.Exp. 2-2,[2],0
same,Sum (SC.Exp.),[2],15
same,AvgP,[3],0.394
same,SC.Exp. 1-1,[3],8
same,SC.Exp. 1-2,[3],8
same,SC.Exp. 2-1,[3],0
same,SC.Exp. 2-2,[3],0
same,Sum (SC.Exp.),[3],16
same,AvgP,[4],0
same,SC.Exp. 1-1,[4],9
same,SC.Exp. 1-2,[4],7
same,SC.Exp. 2-1,[4],6
same,SC.Exp. 2-2,[4],6
same,SC.Exp. Sum,[4],28
same,AvgP,[5],0
same,SC.Exp. 1-1,[5],4
same,SC.Exp. 1-2,[5],3
same,SC.Exp. 2-1,[5],1
same,SC.Exp. 2-2,[5],2
same,SC.Exp. Sum,[5],10
same,AvgP,[6],0
same,SC.Exp. 1-1,[6],1
same,SC.Exp. 1-2,[6],1
same,SC.Exp. 2-1,[6],0
same,SC.Exp. 2-2,[6],1
same,SC.Exp. Sum,[6],3
